# From patent US12365696B2, “Small-molecule focal adhesion kinase (FAK) inhibitors” (DANA-FARBER CANCER INSTITUTE, INC., priority 2019, dated 2025)
# Experiments:
# Experiment in all cases: KINOMEscan
# Format in all cases: binding
# ERBB2 = ERBB2 (Homo sapiens (Human), UniProt P04626); details: ERBB2, 10000 nM; read-out: Percent Control
# MAP3K3 = MAP3K3 (Homo sapiens (Human), UniProt Q99759); details: MAP3K3, 10000 nM; read-out: Percent Control
# ERK3 = ERK3 (Homo sapiens (Human), UniProt Q16659); details: ERK3, 10000 nM; read-out: Percent Control
# Sequence of ERK3 (Q16659 whole entry): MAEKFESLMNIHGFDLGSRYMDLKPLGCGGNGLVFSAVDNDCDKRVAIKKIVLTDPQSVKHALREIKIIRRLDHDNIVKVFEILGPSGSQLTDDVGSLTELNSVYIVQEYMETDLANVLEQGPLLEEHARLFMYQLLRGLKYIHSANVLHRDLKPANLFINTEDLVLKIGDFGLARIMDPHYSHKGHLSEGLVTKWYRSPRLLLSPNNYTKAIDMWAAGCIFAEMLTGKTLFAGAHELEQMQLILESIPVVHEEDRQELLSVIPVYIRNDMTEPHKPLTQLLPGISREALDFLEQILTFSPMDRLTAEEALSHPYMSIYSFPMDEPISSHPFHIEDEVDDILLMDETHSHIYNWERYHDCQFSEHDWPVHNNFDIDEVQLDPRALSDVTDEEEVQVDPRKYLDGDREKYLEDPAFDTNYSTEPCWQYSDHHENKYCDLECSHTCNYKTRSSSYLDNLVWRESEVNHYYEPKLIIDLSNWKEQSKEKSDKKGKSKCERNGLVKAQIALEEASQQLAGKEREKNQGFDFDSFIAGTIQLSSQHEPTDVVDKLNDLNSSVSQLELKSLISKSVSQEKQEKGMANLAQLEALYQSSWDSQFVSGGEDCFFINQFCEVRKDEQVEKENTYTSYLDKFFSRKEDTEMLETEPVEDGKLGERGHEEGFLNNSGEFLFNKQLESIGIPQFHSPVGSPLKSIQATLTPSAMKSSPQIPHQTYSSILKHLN
# STK16 = STK16 (Homo sapiens (Human), UniProt O75716); details: STK16, 10000 nM; read-out: Percent Control
# PRKX = PRKX (Homo sapiens (Human), UniProt P51817); details: 10000 nM, read-out: Percent Control
# PFTK1 = PFTK1 (Homo sapiens (Human), UniProt O94921); details: PFTK1, 10000 nM; read-out: Percent Control
# PAK7 = PAK7 (Homo sapiens (Human), UniProt Q9P286); details: PAK7, 10000 nM; read-out: Percent Control
# Sequence of PAK7 (Q9P286 whole entry): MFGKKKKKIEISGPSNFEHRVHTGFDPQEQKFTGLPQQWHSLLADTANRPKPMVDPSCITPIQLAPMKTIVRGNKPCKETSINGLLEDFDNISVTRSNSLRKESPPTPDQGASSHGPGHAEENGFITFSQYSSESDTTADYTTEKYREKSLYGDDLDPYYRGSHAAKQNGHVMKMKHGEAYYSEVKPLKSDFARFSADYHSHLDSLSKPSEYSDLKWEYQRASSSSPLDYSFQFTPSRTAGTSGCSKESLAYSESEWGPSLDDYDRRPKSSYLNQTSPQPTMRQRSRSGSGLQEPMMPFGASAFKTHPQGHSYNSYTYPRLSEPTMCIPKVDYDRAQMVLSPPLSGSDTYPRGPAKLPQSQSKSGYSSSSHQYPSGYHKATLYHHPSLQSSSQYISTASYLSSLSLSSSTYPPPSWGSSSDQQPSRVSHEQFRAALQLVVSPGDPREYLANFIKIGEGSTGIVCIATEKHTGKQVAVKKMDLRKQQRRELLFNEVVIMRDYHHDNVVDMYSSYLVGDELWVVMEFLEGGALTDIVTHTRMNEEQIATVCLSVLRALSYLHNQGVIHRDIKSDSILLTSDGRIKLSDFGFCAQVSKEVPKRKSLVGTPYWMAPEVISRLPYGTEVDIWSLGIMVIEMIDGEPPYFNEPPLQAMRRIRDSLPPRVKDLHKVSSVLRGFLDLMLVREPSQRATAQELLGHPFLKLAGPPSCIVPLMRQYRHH
# PAK4 = PAK4 (Homo sapiens (Human), UniProt O96013); details: PAK4, 10000 nM; read-out: Percent Control
# p38-beta = p38-beta (Homo sapiens (Human), UniProt Q15759); details: 10000 nM, read-out: Percent Control
# PRKCI = PRKCI (Homo sapiens (Human), UniProt P41743); details: 10000 nM, read-out: Percent Control
# FAK = FAK (Homo sapiens (Human), UniProt Q05397); details: 10000 nM, read-out: Percent Control
# Sequence of FAK (Q05397 whole entry): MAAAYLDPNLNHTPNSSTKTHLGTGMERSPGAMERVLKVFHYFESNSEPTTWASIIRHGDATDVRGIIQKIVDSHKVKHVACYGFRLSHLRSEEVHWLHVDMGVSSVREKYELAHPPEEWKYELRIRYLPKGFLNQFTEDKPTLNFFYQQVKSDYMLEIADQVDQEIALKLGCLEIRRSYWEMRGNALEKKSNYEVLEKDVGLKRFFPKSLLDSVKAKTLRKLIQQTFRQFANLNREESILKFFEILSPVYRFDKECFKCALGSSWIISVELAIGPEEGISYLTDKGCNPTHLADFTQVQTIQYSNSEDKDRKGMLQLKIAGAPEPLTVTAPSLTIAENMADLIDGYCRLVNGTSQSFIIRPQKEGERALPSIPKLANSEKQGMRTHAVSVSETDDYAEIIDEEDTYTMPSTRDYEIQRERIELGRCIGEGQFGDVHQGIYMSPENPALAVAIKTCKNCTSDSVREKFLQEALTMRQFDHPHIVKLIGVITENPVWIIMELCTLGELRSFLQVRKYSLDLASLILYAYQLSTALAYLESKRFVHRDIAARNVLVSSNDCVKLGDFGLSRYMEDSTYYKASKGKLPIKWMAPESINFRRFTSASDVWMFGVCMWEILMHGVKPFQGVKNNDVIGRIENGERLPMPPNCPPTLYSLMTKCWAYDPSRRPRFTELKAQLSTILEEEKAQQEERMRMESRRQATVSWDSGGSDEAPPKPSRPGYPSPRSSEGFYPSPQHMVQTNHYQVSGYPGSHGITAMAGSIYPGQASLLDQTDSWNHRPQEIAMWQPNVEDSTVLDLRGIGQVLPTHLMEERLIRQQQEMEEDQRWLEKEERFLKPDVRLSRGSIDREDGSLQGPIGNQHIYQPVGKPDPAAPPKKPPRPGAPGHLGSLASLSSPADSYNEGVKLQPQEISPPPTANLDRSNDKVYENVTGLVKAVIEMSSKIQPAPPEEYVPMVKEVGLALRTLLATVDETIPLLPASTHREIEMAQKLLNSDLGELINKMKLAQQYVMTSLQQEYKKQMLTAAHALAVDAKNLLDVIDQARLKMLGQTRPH
# TSSK3 = TSSK3 (Homo sapiens (Human), UniProt Q96PN8); details: TSSK3, 10000 nM; read-out: Percent Control
# Sequence of TSSK3 (Q96PN8 whole entry): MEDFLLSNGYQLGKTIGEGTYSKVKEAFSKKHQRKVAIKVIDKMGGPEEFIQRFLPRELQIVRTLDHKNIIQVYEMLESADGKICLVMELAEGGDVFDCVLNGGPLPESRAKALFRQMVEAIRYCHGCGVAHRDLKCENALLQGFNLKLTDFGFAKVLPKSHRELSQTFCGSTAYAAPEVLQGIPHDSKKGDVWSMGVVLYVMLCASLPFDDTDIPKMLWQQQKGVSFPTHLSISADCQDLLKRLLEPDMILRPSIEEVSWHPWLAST
# [1] = target: RPS6KA4(Kin.Dom.1-N-terminal) (Homo sapiens (Human), UniProt O75676); details: 10000 nM, read-out: Percent Control
# FLT3(R834Q) = FLT3(R834Q) (Homo sapiens (Human), UniProt P36888, R834Q); details: 10000 nM, read-out: Percent Control
# CSNK2A2 = CSNK2A2 (Homo sapiens (Human), UniProt P19784); details: CSNK2A2, 10000 nM; read-out: Percent Control
# Sequence of CSNK2A2 (P19784 whole entry): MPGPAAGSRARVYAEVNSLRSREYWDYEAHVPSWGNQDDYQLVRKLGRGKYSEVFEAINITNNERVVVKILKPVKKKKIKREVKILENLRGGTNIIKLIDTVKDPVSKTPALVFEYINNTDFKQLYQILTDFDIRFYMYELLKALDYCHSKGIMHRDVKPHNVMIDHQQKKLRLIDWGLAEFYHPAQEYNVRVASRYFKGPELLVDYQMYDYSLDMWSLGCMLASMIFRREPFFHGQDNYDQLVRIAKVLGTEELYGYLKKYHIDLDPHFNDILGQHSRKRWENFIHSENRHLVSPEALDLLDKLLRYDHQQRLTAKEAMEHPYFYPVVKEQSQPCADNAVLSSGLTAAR
# SGK2 = SGK2 (Homo sapiens (Human), UniProt Q9HBY8); details: SGK2, 10000 nM; read-out: Percent Control
# ALK = ALK (Homo sapiens (Human), UniProt Q9UM73); details: 10000 nM, read-out: Percent Control
# DYRK1A = DYRK1A (Homo sapiens (Human), UniProt Q13627); details: 10000 nM, read-out: Percent Control
# PRKCQ = PRKCQ (Homo sapiens (Human), UniProt Q04759); details: 10000 nM, read-out: Percent Control
# EGFR = EGFR (Homo sapiens (Human), UniProt P00533); details: 10000 nM, read-out: Percent Control
# BUB1 = BUB1 (Homo sapiens (Human), UniProt O43683); details: BUB1, 10000 nM; read-out: Percent Control
# Sequence of BUB1 (O43683 whole entry): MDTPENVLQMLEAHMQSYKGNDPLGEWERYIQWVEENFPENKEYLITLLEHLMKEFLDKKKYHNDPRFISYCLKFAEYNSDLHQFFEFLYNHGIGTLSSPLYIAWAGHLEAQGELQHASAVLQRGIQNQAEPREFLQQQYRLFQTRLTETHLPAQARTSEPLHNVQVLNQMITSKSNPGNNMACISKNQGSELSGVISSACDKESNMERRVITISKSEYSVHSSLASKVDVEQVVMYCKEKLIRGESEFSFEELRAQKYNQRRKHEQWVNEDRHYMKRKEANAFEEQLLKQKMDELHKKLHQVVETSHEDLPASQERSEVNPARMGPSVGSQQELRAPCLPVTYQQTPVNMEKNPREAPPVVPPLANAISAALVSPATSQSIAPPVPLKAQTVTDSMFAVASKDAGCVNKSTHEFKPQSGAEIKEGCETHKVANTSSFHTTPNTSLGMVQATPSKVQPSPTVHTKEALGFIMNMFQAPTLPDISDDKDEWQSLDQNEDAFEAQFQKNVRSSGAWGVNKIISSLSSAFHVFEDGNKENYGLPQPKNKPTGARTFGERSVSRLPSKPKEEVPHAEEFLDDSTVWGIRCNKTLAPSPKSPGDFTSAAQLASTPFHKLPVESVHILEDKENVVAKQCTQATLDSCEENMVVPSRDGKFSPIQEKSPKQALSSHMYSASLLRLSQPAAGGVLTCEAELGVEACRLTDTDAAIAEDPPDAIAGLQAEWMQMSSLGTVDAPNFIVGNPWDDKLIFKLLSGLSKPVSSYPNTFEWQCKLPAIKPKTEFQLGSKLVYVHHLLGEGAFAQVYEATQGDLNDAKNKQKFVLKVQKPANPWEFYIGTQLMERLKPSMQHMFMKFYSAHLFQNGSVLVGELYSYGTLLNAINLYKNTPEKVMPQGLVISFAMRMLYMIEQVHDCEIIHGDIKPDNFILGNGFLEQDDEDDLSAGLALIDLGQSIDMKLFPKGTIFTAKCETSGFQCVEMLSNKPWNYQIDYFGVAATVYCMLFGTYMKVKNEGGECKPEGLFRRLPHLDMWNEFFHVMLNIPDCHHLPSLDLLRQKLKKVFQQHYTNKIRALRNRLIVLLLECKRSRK
# SBK1 = SBK1 (Homo sapiens (Human), UniProt Q52WX2); details: SBK1, 10000 nM; read-out: Percent Control
# [2] = target: RSK4(Kin.Dom.2-C-terminal) (Homo sapiens (Human), UniProt Q9UK32); details: 10000 nM, read-out: Percent Control
# Sequence of RSK4(Kin.Dom.2-C-terminal) (Q9UK32 426-683): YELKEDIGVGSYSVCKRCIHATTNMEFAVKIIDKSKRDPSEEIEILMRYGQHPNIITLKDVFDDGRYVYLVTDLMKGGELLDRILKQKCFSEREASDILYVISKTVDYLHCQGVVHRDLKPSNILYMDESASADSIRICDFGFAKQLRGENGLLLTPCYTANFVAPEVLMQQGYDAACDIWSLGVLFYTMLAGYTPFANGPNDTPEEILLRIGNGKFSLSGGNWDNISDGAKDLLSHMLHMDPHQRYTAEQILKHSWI
# PIK3C2B = PIK3C2B (Homo sapiens (Human), UniProt O00750); details: 10000 nM, read-out: Percent Control
# MAP4K4 = MAP4K4 (Homo sapiens (Human), UniProt O95819); details: MAP4K4, 10000 nM; read-out: Percent Control
# PLK4 = PLK4 (Homo sapiens (Human), UniProt O00444); details: PLK4, 10000 nM; read-out: Percent Control
# MTOR = MTOR (Homo sapiens (Human), UniProt P42345); details: 10000 nM, read-out: Percent Control
# FGFR2 = FGFR2 (Homo sapiens (Human), UniProt P21802); details: FGFR2, 10000 nM; read-out: Percent Control
# EPHB6 = EPHB6 (Homo sapiens (Human), UniProt O15197); details: EPHB6, 10000 nM; read-out: Percent Control
# HIPK3 = HIPK3 (Homo sapiens (Human), UniProt Q9H422); details: HIPK3, 10000 nM; read-out: Percent Control
# MEK4 = MEK4 (Homo sapiens (Human), UniProt P45985); details: MEK4, 10000 nM; read-out: Percent Control
# Sequence of MEK4 (P45985 whole entry): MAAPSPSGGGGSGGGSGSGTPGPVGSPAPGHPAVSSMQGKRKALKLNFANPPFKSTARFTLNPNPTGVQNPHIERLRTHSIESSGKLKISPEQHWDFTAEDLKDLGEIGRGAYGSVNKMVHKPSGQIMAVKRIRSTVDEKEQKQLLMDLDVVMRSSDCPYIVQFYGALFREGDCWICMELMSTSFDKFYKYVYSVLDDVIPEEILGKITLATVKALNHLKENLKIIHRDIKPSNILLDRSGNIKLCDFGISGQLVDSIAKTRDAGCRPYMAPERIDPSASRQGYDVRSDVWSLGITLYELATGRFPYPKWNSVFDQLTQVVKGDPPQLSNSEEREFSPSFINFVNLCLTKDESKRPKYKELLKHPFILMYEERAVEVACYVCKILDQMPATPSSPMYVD
# STK35 = STK35 (Homo sapiens (Human), UniProt Q8TDR2); details: STK35, 10000 nM; read-out: Percent Control
# DRAK1 = DRAK1 (Homo sapiens (Human), UniProt Q9UEE5); details: DRAK1, 10000 nM; read-out: Percent Control
# MAP3K1 = MAP3K1 (Homo sapiens (Human), UniProt Q13233); details: MAP3K1, 10000 nM; read-out: Percent Control
Compound,remaining binding at 10 µM (ERBB2),remaining binding at 10 µM (MAP3K3),remaining binding at 10 µM (ERK3),remaining binding at 10 µM (STK16),remaining binding at 10 µM (PRKX),remaining binding at 10 µM (PFTK1),remaining binding at 10 µM (PAK7),remaining binding at 10 µM (PAK4),remaining binding at 10 µM (p38-beta),remaining binding at 10 µM (PRKCI),remaining binding at 10 µM (FAK),remaining binding at 10 µM (TSSK3),remaining binding at 10 µM [1],remaining binding at 10 µM (FLT3(R834Q)),remaining binding at 10 µM (CSNK2A2),remaining binding at 10 µM (SGK2),remaining binding at 10 µM (ALK),remaining binding at 10 µM (DYRK1A),remaining binding at 10 µM (PRKCQ),remaining binding at 10 µM (EGFR),further results
"COc1cc(N2CCC(N3CCN(C)CC3)CC2)ccc1Nc1ncc2c(n1)N(C)c1sc(C)nc1C(=O)N2 [Compound 3, 6-((2-methoxy-4-(4-(4-methylpiperazin-1-yl)piperidin-1-yl)phenyl)amino)-2,4-dimethyl-4,9-dihydro-10H-pyrimido[5,4-b]thiazolo[5,4-e][1,4]diazepin-10-one]",98%,100%,89%,81%,96%,90%,97%,65%,55%,73%,0.55%,98%,100%,100%,87%,99%,100%,100%,89%,90%,remaining binding at 10 µM (BUB1): 100%; remaining binding at 10 µM (SBK1): 100%; remaining binding at 10 µM [2]: 69%; remaining binding at 10 µM (PIK3C2B): 86%; remaining binding at 10 µM (MAP4K4): 79%; remaining binding at 10 µM (PLK4): 81%; remaining binding at 10 µM (MTOR): 85%; remaining binding at 10 µM (FGFR2): 80%; remaining binding at 10 µM (EPHB6): 45%; remaining binding at 10 µM (HIPK3): 100%; remaining binding at 10 µM (MEK4): 100%; remaining binding at 10 µM (STK35): 89%; remaining binding at 10 µM (DRAK1): 95%; remaining binding at 10 µM (MAP3K1): 100%
"COc1cc(N2CCC(N3CCN(C)CC3)CC2)ccc1Nc1ncc2c(n1)N(C)c1sc(C)nc1C(=O)N2C [Compound 5, 6-((2-methoxy-4-(4-(4-methylpiperazin-1-yl)piperidin-1-yl)phenyl)amino)-2,4,9-trimethyl-4,9-dihydro-10H-pyrimido[5,4-b]thiazolo[5,4-e][1,4]diazepin-10-one]",100%,100%,100%,100%,99%,100%,88%,100%,95%,97%,0.1%,98%,100%,81%,93%,98%,99%,87%,88%,100%,remaining binding at 10 µM (BUB1): 100%; remaining binding at 10 µM (SBK1): 98%; remaining binding at 10 µM [2]: 67%; remaining binding at 10 µM (PIK3C2B): 100%; remaining binding at 10 µM (MAP4K4): 100%; remaining binding at 10 µM (PLK4): 19%; remaining binding at 10 µM (MTOR): 31%; remaining binding at 10 µM (FGFR2): 100%; remaining binding at 10 µM (EPHB6): 100%; remaining binding at 10 µM (HIPK3): 100%; remaining binding at 10 µM (MEK4): 100%; remaining binding at 10 µM (STK35): 100%; remaining binding at 10 µM (DRAK1): 100%; remaining binding at 10 µM (MAP3K1): 100%
